The values that follow are results of earlier work, collected in US8658200B2, “Flavoring of drug-containing chewing gums” (McNeil-PPC, Inc., priority 2005, dated 2014).

This data set relates to adult.

As for `CN1CCCC1c1cccnc1` (stereo not shown) [nicotine, 3-(1-methyl-2-pyrrolidinyl)-pyridine], the “amount of nicotine able to kill an adult” value is reported as “Approximately 40 milligrams”.
